Common to all, as to type: in vivo
Experiment [1] deals with formalin pain. Put plainly: formalin pain test. The following applies: Cavia porcellus, po; guinea-pig, administered perorally 1 hour before the test.
In experiment [2] the test system is increase in capillary permeability caused by septide (agonist of substance P). The experiment can be described thus: inhibition of the increase in capillary permeability caused by septide. The following applies: Cavia porcellus, guinea-pig. The text has this: The study of some isoindole derivatives of the general formula (I) by the technique of A. Saria et al., Arch.

Experiment [3] deals with bronchospasm induced by [Pro^9 ] substance P. Put plainly: inhibition of bronchospasm induced by [Pro9] substance P. To be noted: Cavia porcellus, iv; guinea-pig, bronchospasm induced by 3 μg/kg i.v. of [Pro9] substance P; read-out: ED50, dose which reduces by 50% the bronchospasm. From the text: Injection of substance P causes a bronchospasm in the animal. The bronchoconstriction induced in vivo in the guinea-pig by injection of substance P or a selective agonist of substance P:. [Pro^9 ] substance P, is studied by the technique of H. Konzett and R. Rosseler, Archiv. Exp. Path. Pharmak., 195, 71-74 (1940). This bronchoconstriction is inhibited by injection of a product according to the invention, which is evidence of an antiasthmatic activity. The ED50, the dose which reduces by 50% the bronchospasm induced by 3 μg/kg i.v. of [Pro^9 ] substance P, is determined. In this technique, the ED50 of the product of Example 1 is 0.7 mg/kg i.v.

Experiment [4] relates to hypotension induced by substance P. Put plainly: antagonism of hypotension induced by substance P. To be noted: Cavia porcellus, iv; guinea-pig, hypotension induced by i.v. injection of 250 ng/kg of substance P; read-out: ED50, dose which reduces by 50% the hypotension. Here is the method:
Injection of substance P in animals causes hypotension. The products studied by the technique of C. A. Maggi et al., J. Auton. […] The ED50, the dose which reduces by 50% the hypotension induced by an i.v. injection of 250 ng/kg of substance P, is determined.

Structures are written as SMILES.

One may read the ED50 as the dose that gives a 50% effect, or the effect in half of the subjects.

Take `COc1ccccc1[C@H](C)C(=O)N1C[C@@H]2[C@H](C1)C(c1ccccc1)(c1ccccc1)CC[C@@]2(O)c1ccccc1OC` [Example 1, (3aS,4S,7aS)-7,7-diphenyl-4-(2-methoxyphenyl)-2-[(S)-2-(2methoxyphenyl)propionyl]perhydroisoindol-4-ol]: the ED50 in experiment [1] was found to be 11 mg/kg; in experiment [2] (iv), 0.04 mg/kg; in experiment [2] (po), 3.5 mg/kg; in experiment [3] it was 0.7 mg/kg; in experiment [4], 0.15 mg/kg.
